Data from patent US9751837B2, “Kinase inhibitors” (RESPIVERT LIMITED, priority 2014, dated 2017).
Like-named read-outs stand apart in the source and are kept apart here. Blank lines part the entries; values can stand above or below the molecule they belong to.

Experiments:
c-Src = c-Src (Homo sapiens (Human), UniProt P12931); assay: c-Src enzyme inhibition, Z-LYTE FRET; format: biochemical
Method: (§1) The enzyme inhibitory activities of compounds disclosed herein are determined by FRET using synthetic peptides labelled with both donor and acceptor fluorophores (Z-LYTE, Invitrogen Ltd., Paisley, UK).
The inhibitory activities of compounds of the invention against c-Src and Syk enzymes (Invitrogen), are evaluated in a similar fashion to that described hereinabove. The relevant enzyme (3000 ng/mL or 2000 ng/mL respectively, 2.5 μL) is incubated with the test compound (either 1 μg/mL, 0.1 μg/mL, 0.01 μg/mL, or 0.001 μg/mL, 2.5 μL each) for 2 hr at RT. The FRET peptides (8 μM. 2.5 μL), and appropriate ATP solutions (2.5 μL, 800 μM for c-Src, and 60 μM ATP for Syk) are then added to the enzymes/compound mixtures and the mixture incubated for 1 hr. Development reagent (protease, 5 μL) is added for 1 hr prior to detection in a fluorescence microplate reader (Varioskan® Flash, ThermoFisher Scientific).
(§2) In all cases, the site-specific protease cleaves non-phosphorylated peptide only and eliminates the FRET signal. Phosphorylation levels of each reaction are calculated using the ratio of coumarin emission (donor) over fluorescein emission (acceptor), for which high ratios indicate high phosphorylation and low ratios indicate low phosphorylation levels.

p38 MAPKα (MAPK14) = p38 MAPKα (MAPK14) (Homo sapiens (Human), UniProt Q16539); assay: p38 MAPKα enzyme inhibition (Method 2), Z-LYTE FRET; format: biochemical
Method: as §1
The following two assay variants can be used for determination of p38 MAPKα inhibition.
The inhibitory activities of test compounds against the p38 MAPKα isoform (MAPK14: Invitrogen) are evaluated indirectly by determining the level of activation/phosphorylation of the down-stream molecule, MAPKAP-K2. The p38 MAPKα protein (80 ng/mL, 2.5 μL) is mixed with the test compound (2.5 μL of either 4 μg/mL, 0.4 μg/mL, 0.04 μg/mL or 0.004 μg/mL) for 2 hr at RT. […] The mixture is incubated for 1 hr at RT. Development reagent (protease, 5 μL) is added for 1 hr prior to detection in a fluorescence microplate reader (Varioskan® Flash, ThermoFisher Scientific). […]
as §2

[1] = format: in vivo; details: four daily instillations, 0.1 and 1.0 mg/mL, rabbits
[2] = tested on: Salmonella typhimurium, strains TA1535, TA1537, TA98 and TA100; assay: Bacterial reverse mutation screen, Salmonella typhimurium
[3] = Stability of pharmaceutical formulations (HPLC); format: physicochemical; details: 1 mg/mL Na and HCl salts in 10 mM pH 7.2 phosphate buffer, 4.5% mannitol, 3% polyoxyl 40 stearate; 5° C.
Method: The samples were sonicated to achieve clear solutions having the following properties: Osmolality (mOsm/kg): 310 (Na), 314 (HCl); pH: 7.00 (Na), 7.05 (HCl). 0.5 mL of the stock solutions were diluted to 1 mL with 20% DMSO in water & injected for purity analysis by HPLC. The remaining stock solutions were then split into aliquots of 0.5 mL in HPLC vials, and stored at various conditions in duplicate. Samples were stored at 5 and 25° C., before being analysed by HPLC at 1, 2 and 4 weeks. Separate samples were stored at 40° C. and analysed at 4 weeks.

LPS-stimulated rats = assay: Endotoxin-induced uveitis in rats (vi); format: in vivo, Lewis rats; details: rats treated with intravitreal endotoxin LPS
Method: Male, Lewis rats (6-8 weeks old, Charles River UK Limited) are housed in cages of 3 at 19-21° C. with a 12 h light/dark cycle (07:00/19:00) and fed a standard diet of rodent chow and water ad libitum. Non-fasted rats are weighed, individually identified on the tail with a permanent marker, and receive a single intravitreal administration into the right vitreous humor (5 μL dose volume) of 100 ng/animal of LPS (Escherichia coli 0111:B4 prepared in PBS, Sigma Aldrich, UK) using a 32-gauge needle. Untreated rats are injected with PBS. Test compound or vehicle (4% polyoxyl 40 stearate, 4% mannitol in PBS (pH 7.4)) are administered by the topical route onto the right eye (10 μL) of animals 1 hour prior to LPS, at the time of LPS administration, and 1, 2 and 4 hours post LPS administration. Before administration, the solution to be administered is sonicated to ensure a clear solution. 6 hours after LPS dosing, animals are euthanized by overdose with pentobarbitone (via cardiac puncture). Immediately after euthanasia, 10 μL of aqueous humor is collected from the right eye of the rats by puncture of the anterior chamber using a 32 gauge needle under a surgical microscope. The aqueous humor is diluted in 20 μL of PBS and total cell counts are measured immediately using a Countess automated cell counter (Invitrogen). […]

[4] = tested on: Escherichia coli, WP2 uvrA; assay: Bacterial reverse mutation screen, Escherichia coli; details: presence or absence of S-9 mix, plate incorporation
Syk = Syk (Homo sapiens (Human), UniProt P43405); assay: Syk enzyme inhibition, Z-LYTE FRET; format: biochemical
Method: as §1
The relevant enzyme (3000 ng/mL or 2000 ng/mL respectively, 2.5 μL) is incubated with the test compound (either 1 μg/mL, 0.1 μg/mL, 0.01 μg/mL, or 0.001 μg/mL, 2.5 μL each) for 2 hr at RT. […] Development reagent (protease, 5 μL) is added for 1 hr prior to detection in a fluorescence microplate reader (Varioskan® Flash, ThermoFisher Scientific).
as §2

[5] = Pharmacokinetics and total colon distribution after single oral administration; format: in vivo, male C57BL/6 mice; details: mice, oral 5 mg/kg; for total colon level: measured cpd = dosed cpd (1, 19, 47 as Na salt, 44 as NH4+ salt); for Mean blood concentration: measured cpd = dosed cpd (19, 47 as Na salt)
Method: Studies were conducted by Sai Life Sciences (Hinjewadi, Pune, India) to investigate the systemic pharmacokinetics and total colon tissue distribution of compounds of the invention. In particular, pharmacokinetic studies were carried out in male C57BL/6 mice following a single oral administration of the compound.

[6] = Hydrolytic stability study (DMSO/water 3:1, 60° C.); format: physicochemical
Method: Chemical stability of compounds of the invention was assessed in a mixture of DMSO and water (3:1) at a test compound concentration of 1 mg/mL.
General HPLC Procedure • Agilent, Waters X-Select C18, 2.5 μm, 4.6×30 mm column, 4 min method, 5-95% MeCN/water (0.1% formic acid). Flow rate 2.5 mL/min. Column Oven Temperature 40° C. Detection 254 nm.
Sample Preparation • A 1.0 mg sample of test compound was dissolved in 750 μL of DMSO. Water (250 μL) was added slowly, ensuring no precipitation occurred.
Recording Stability • A 50 μL aliquot of the test solution was removed and analysed in duplicate by 5 μL HPLC injections. The peak area for the test compound was recorded following manual integration of the corresponding UV trace. • The test solution was heated to 60° C., with stirring, and 50 μL aliquots removed for HPLC analysis at 5 and 24 h timepoints.

Sequence of p38 MAPKα (MAPK14) (Q16539 whole entry): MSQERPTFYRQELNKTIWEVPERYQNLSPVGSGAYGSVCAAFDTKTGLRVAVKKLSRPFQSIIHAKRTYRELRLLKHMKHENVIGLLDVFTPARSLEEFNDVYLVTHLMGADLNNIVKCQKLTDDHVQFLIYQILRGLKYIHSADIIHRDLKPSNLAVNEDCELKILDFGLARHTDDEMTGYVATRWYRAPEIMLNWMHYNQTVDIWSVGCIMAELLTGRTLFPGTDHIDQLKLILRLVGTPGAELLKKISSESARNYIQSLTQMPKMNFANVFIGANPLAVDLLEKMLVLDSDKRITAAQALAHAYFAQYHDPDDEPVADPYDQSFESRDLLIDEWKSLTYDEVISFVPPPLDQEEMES
Sequence of c-Src (P12931 whole entry, looked up): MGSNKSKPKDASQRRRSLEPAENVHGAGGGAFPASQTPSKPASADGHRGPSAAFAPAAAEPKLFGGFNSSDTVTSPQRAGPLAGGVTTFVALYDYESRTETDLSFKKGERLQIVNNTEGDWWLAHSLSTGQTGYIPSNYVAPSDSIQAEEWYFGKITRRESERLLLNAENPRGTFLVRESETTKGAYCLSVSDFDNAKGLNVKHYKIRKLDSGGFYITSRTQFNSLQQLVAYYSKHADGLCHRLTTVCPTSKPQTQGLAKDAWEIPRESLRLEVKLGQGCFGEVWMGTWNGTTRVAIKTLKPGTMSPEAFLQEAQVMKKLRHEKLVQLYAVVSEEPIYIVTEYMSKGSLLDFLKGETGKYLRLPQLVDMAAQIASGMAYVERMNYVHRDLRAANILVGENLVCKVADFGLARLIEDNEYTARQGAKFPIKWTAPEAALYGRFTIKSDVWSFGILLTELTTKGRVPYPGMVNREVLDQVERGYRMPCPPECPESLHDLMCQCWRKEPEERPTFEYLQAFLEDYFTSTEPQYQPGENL

IC50 (c-Src): 32 nM
IC50 (p38 MAPKα (MAPK14)): 66 nM
SMILES: COc1c(NC(=O)Nc2ccc(Oc3ccnc(Nc4ccc(C(=O)NCCN5CCOCC5)cc4)c3)c3ccccc23)cc(C(C)(C)C)cc1NS(C)(=O)=O [17(u), 4-[[4-[[4-[[5-tert-butyl-3-(methanesulfonamido)-2-methoxy-phenyl]carbamoylamino]-1-naphthyl]oxy]-2-pyridyl]amino]-N-(2-morpholinoethyl)benzamide]

SMILES: COc1cc(Nc2cc(Oc3ccc(NC(=O)Nc4cc(C(C)(C)C)cc(NS(C)(=O)=O)c4OC)c4ccccc34)ccn2)ccc1C(=O)O [Example 1, 4-((4-((4-(3-(5-(tert-Butyl)-2-methoxy-3-(methylsulfonamido)phenyl)ureido)naphthalen-1-yl)oxy)pyridin-2-yl)amino)-2-methoxybenzoic acid]
local tolerability of the formulations (ocular) ([1]; Phase 1: one treatment day): acceptable
local tolerability of the formulations (ocular) ([1]; Phase 2: three consecutive treatment days): acceptable
mutagenic effects (revertant numbers) ([2]; TA1535, TA1537, TA98, TA100, presence or absence of S-9 mix, plate incorporation): absence of any mutagenic effects
dose with reduction in the mean colony count (toxicity to the bacteria) ([2]; TA1535, presence of S-9 mix): 1500 μg/plate
limit of solubility in the mutation test ([2]; all strains, presence and absence of S-9 mix, plate incorporation): 1500 μg/plate
stability in solution [3]: stable
cellular infiltration and cytokine IL-1β levels in anterior and posterior segments of the eyes (LPS-stimulated rats): significantly and dose-dependently reduced
mutagenic effects (revertant numbers) [4]: absence of any mutagenic effects

IC50 (Syk): 8 nM
total colon level ([5]; 0.5 h): 0.0 ng/g
Mean blood concentration ([5]; 0.5 h): 0.0 ng/mL
total colon level ([5]; 1 h): 0.0 ng/g
Mean blood concentration ([5]; 1 h): 0.0 ng/mL
total colon level ([5]; 2 h): 0.0 ng/g
Mean blood concentration ([5]; 2 h): 0.0 ng/mL
total colon level ([5]; 4 h): 0.0 ng/g
Mean blood concentration ([5]; 4 h): 0.0 ng/mL
total colon level ([5]; 6 h): 0.0 ng/g
Mean blood concentration ([5]; 6 h): 0.0 ng/mL
total colon level ([5]; 8 h): 0.0 ng/g
Mean blood concentration ([5]; 8 h): 0.0 ng/mL
total colon level ([5]; 12 h): 0.0 ng/g
Mean blood concentration ([5]; 12 h): 0.0 ng/mL
total colon level ([5]; 24 h): 0.0 ng/g
Mean blood concentration ([5]; 24 h): 0.0 ng/mL
IC50 (c-Src): 22 nM
IC50 (p38 MAPKα (MAPK14)): 8 nM
SMILES: COc1cc(Nc2cc(Oc3ccc(NC(=O)Nc4cc(C(C)(C)C)cc(NS(C)(=O)=O)c4OC)c4ccccc34)ccn2)ccc1C(=O)NCCOCCOCCOP(=O)(O)O [Example 19, 2-(2-(2-(4-((4-((4-(3-(5-(tert-Butyl)-2-methoxy-3-(methylsulfonamido)phenyl)ureido)naphthalen-1-yl)oxy)pyridin-2-yl)amino)-2-methoxybenzamido)ethoxy)ethoxy)ethyl dihydrogen phosphate]

decomposition under the conditions of the hydrolytic stability experiment [6]: substantial decomposition
SMILES: C#Cc1cc(Nc2nccc(Oc3ccc(NC(=O)Nc4cc(C(C)C)nn4-c4ccc(C)cc4)c4ccccc34)n2)cc(C(=O)NCCN2CCOCC2)c1 [Reference Compound B, 3-ethynyl-5-((4-((4-(3-(3-isopropyl-1-(p-tolyl)-1H-pyrazol-5-yl)ureido)naphthalen-1-yl)oxy)pyrimidin-2-yl)amino)-N-(2-morpholinoethyl)benzamide]
